Source: patent US20090012000A1, “Anti-Viral Peptide and Use Thereof” (TOAGOSEI CO., LTD., priority 2006, published 2009)
Ends that are not written are not given here.

Columns and labels:
[1] = system: HVT (turkey herpes virus); assay: HVT multiplication suppression test in CEF cells, titer by plaque assay; type: cell-based, turkey herpes virus (FC-126 strain); conditions: for antiviral activity (viral multiplication suppression effect): result in words, peptide 10, 50 and 100 μM; for Ratio (relative ratio of virus titer, no peptide added = 1) / Titer: CEF cells, six days
Experimental: The antiviral activity (viral multiplication suppression effect) was examined for each sample antiviral peptide and each comparative sample peptide. In the present example, HVT (turkey herpes virus) was used as the target virus, and the titer was measured based on the plaque assay method.
That is to say, chicken embryo fibroblast (CEF) cells prepared from SPF (specific pathogen-free) embryonated hen's egg (purchased from Nisseiken Co., LTD) were monolayer-cultured at 37° C. using Leibowitz-McCoy 5A (1:1) mixed culture medium (LM medium). The culture was peeled from the culture dish by trypsin digestion and transferred to a 50 mL centrifugation tube. After centrifugal separation, the supernatant was discarded and the culture was suspended with LM medium.
HVT (FC-126 strain used as vaccine), which virus titer was measured beforehand, was diluted with this cell suspension to as to have 100 plaque forming units (PFU) or 400 PFU per 2 mL. This dilute solution was dispensed in each well of a 6-well plate, 2 mL in each. Then, the test peptides (Samples 1 to 4, Comparative Samples 1 to 4) were diluted with PBS to be at 2.1 mM, 1050 μM and 210 μM, and added to each well, 0.1 mL in each. The final concentration of each well after addition was respectively 100 μM, 50 μM and 10 μM. A well to which 0.1 mL of PBS not containing peptide was added was prepared as a reference.
Thereafter, the above 6-well plate was placed in a CO2 incubator (5% CO2), cultured at 37° C. for six days, and the number and size of HVT plaques that appeared were observed. Here, comparing with wells with no peptide added, when a drop in the number of plaques or a reduction in the size of plaques was not observed even when a peptide was added, the viral multiplication suppression effect of this peptide was determined to be none. On the other hand, a test peptide for which a well with smaller plaque number or plaque size was present, the titer of each well was measured, and the viral multiplication suppression effect (antiviral activity) was quantified by comparing with the quantity of virus with no peptide added.
For the method for measuring the HVT virus titer, cells in each well were recovered by trypsin digestion, serially diluted, mixed again with CEF cells, dispensed in a 6-well plate and cultured at 37° C., and the number of plaques appeared after six days were counted. The relative ratio of virus titer at each peptide concentration was determined with the virus titer (PFU/mL) of the well with no peptide added being 1. That is to say, the viral multiplication suppression effect of each test peptide can be compared using the value of this relative ratio (Ratio).

[2] = system: A/New Calcdonia/20/99 (H1N1) influenza virus; assay: Influenza virus multiplication inhibition assay (plaque assay) in MDCK cells; type: cell-based; conditions: 48 hours; for Infectivity Titer, Trial 1: control 1.1 × 10^9; for Infectivity Titer, Trial 2: control 2.1 × 10^9

| Substance | antiviral activity (viral multiplication suppression effect) [1] | Ratio (relative ratio of virus titer, no peptide added = 1) ([1]; peptide 100 μM) | Infectivity Titer, Trial 1 ([2]; peptide 100 μM) | also measured |
| --- | --- | --- | --- | --- |
| EFFDAPE-COOH (EFFDAPE-OH; listed as Homo sapiens) [Comparative Sample 3, reference compound] | no viral multiplication suppression effect |  |  |  |
| RQARRNRRRRWR-COOH (RQARRNRRRRWR-OH) [Comparative Sample 1, reference compound] | no viral multiplication suppression effect |  |  |  |
| RQARRNRRRRWR EFFDARE-CONH2 (RQARRNRRRRWREFFDARE-NH2) [Sample 2] |  | 0.80 |  |  |
| RKKKRKV-COOH (RKKKRKV-OH) [Comparative Sample 2, reference compound] | no viral multiplication suppression effect |  |  |  |
| FKIKITTAPKRYCVRPN-NH2 [Comparative Sample 4, reference compound] | no viral multiplication suppression effect |  |  |  |
| RQARRNRRRRWR EFFDAPE-CONH2 (RQARRNRRRRWREFFDAPE-NH2) [Sample 1] |  | 0.90 |  |  |
| RQARRNRRRRWR FKVKTTSPKKYFVRPN-CONH2 (RQARRNRRRRWRFKVKTTSPKKYFVRPN-NH2) [Sample 4] | excellent antiviral activity | 0.16 | 5.8 × 10^8 PFU/mL | Ratio (relative ratio of virus titer, no peptide added = 1) ([1]; peptide 10 μM): 1.0; Titer ([1]; peptide 10 μM): (7.6 × 10^4) PFU/mL; Ratio (relative ratio of virus titer, no peptide added = 1) ([1]; peptide 50 μM): 0.46; Titer ([1]; peptide 50 μM): (3.5 × 10^4) PFU/mL; Titer ([1]; peptide 100 μM): (1.2 × 10^4) PFU/mL; Infectivity Titer, Trial 1 ([2]; peptide 200 μM): 2.8 × 10^8 PFU/mL |
| RKKKRKV FKVKTTAPRRYCVRPN-CONH2 (RKKKRKVFKVKTTAPRRYCVRPN-NH2) [Sample 5] |  |  | 3.5 × 10^8 PFU/mL | Infectivity Titer, Trial 1 ([2]; peptide 50 μM): 1.0 × 10^9 PFU/mL; Infectivity Titer, Trial 2 ([2]; peptide 50 μM): 1.2 × 10^9 PFU/mL; Infectivity Titer, Trial 2 ([2]; peptide 100 μM): 6.9 × 10^8 PFU/mL |
| RKKKRKV FKIKTTAPKRYCVRPN-CONH2 (RKKKRKVFKIKTTAPKRYCVRPN-NH2) [Sample 3] | excellent antiviral activity | 0.30 |  |  |
| RKKKRKV FKVKTTAPKRYCVRPN-CONH2 (RKKKRKVFKVKTTAPKRYCVRPN-NH2) [Sample 6] |  |  | 3.3 × 10^8 PFU/mL | Infectivity Titer, Trial 1 ([2]; peptide 200 μM): 1.0 × 10^8 PFU/mL |
